Data: publication PMC8829872 (Cancer chemotherapy and pharmacology, 2022)
Where two headings read alike, the source gives them in different places.

How the values were obtained:
[1] = Extensive tissue distribution study in CT26 tumor-bearing mice; assay type: in vivo, Balb/c mice; settings: Balb/c, mouse, 75 mg/kg PO; for AUC(0-t): 0-1440 min, read-out: AUC0-t (converted); for Cmax: read-out: Cmax; for Tmax: read-out: Tmax (converted)
Procedure: Mice were injected subcutaneously on the right flank with 1x10^6 CT26 cells, a murine colorectal carcinoma cell line from BALB/c mice,obtained from ATCC (Manassas, VA). Cells were cultured in RPMI-1640 medium with L-glutamine (BioWhittaker Inc., Walkersville, MD), containing 10% heat-inactivated fetal bovine serum and 100 units of penicillin/mL and 100 μg/mL of streptomycin (Biofluids, BioSource, Rockville, MD) in an incubator with 95% air, 5% CO2, and 95% humidity at 37 °C. Cells were verified and checked for mycoplasm by IDEXX BioAnalytics (Westbrook, ME). Implantation and tumor growth were monitored twice weekly with a digital caliper. When tumors were approximately 200 mm^3, mice were stratified into time groups (N=3) primarily using body weight and secondarily using tumor size. Mice were administered 75 mg/kg PO through oral gavage. […] Bone marrow was obtained by flushing both femurs from each mouse with PBS, followed by centrifugation at 12,000 x g and removal of the supernatant. Protein analysis of the resuspended pellet was conducted using the Bio-Rad protein assay following the manufacturer’s instructions with bovine serum albumin as the standard. Blood was processed to obtain plasma and urine and feces were collected as described above.
For tissue and tumor analysis, samples were homogenized with 3 parts PBS (v/g) and further diluted with control plasma and concentrations determined from calibration curves prepared in control plasma.

[2] = 1 h after 25 mg/kg IP; cited from earlier work
in vivo = settings: Balb/c, mouse
Procedure: The vehicle for all groups was 10% DMSO, 40% propylene glycol, and 50% dH2O. […] Mice were euthanized by CO2 inhalation and the following tissues collected: blood, liver, kidney, lung, skeletal muscle, and brain.
Duplicate standard curves with calibrators consisting of 0.3, 1, 3, 10, 30 100, 300, and 1,000 ng/mL, in addition to blank plasma, were prepared fresh on days of analysis using control Balb/c mouse plasma (Innovative Research, Novi, MI). QCs were prepared in bulk and stored at −80 °C, with concentrations of 0.8 (QCL), 20 (QCM), and 800 ng/mL (QCH). […] The injection volume was 3 μL. […] Curve fitting was accomplished through linear regression with 1/y^2 weighting. Semi-quantitation of metabolites was accomplished by reporting IS normalized metabolite response.
Noncompartmental (NC) PK was determined using GraphPad Prism (San Diego, CA) using the linear trapezoidal method and Bailer method of AUC determination for estimates of exposure in plasma, RBC, tumors, and tissues [24]. PK parameters or analysis requiring dose were adjusted for the actual dose as determined using measurements of dosing solution. Dose-normalized plasma exposures, Cmax and AUC, of PO treated groups of the dose linearity studies were compared using ANOVA tests to determine dose linearity.
Tissue partition coefficients (PTissue) and RBC partitioning (PRBC) were calculated using Eq. (1) and tested among PO treated groups using ANOVA tests.
The resulting concentrations were multiplied by the volume or weight to convert to a total amount and then divided by 3 to account for the number of mice per cage. These amounts were then divided by the average total amount of drug administered to calculate the percent excreted by urine and feces, see Eq. (2). Renal clearance (ClR) was calculated by dividing the excreted amount by the plasma AUC, see Eq. (3) [25].
When available, plasma metabolite data was used to determine semi-quantitative exposure as well as metabolic ratios, using Eq. (4). The MR among PO treated groups in the dose linearity studies were compared using ANOVA testing. Metabolite presence was also analyzed in urine and feces.

Molecule `C[C@@H]1COCCN1c1cc(C2([S@](C)(=N)=O)CC2)nc(-c2cc[nH]c3nccc2-3)n1` [AZD6738] has an AUC(0-inf) ([1]; Fat) of 16300 ng·h/mL, an AUC(0-t) ([1]; Fat) of 16300 ng·h/mL and a Cmax ([1]; Fat) of 9200 ng/mL. The Tmax ([1]; Fat) was 30 min, the AUC(0-inf) ([1]; Heart) was 45600 ng·h/mL and the AUC(0-t) ([1]; Heart) was 45600 ng·h/mL. It also gave a Cmax ([1]; Heart) of 19400 ng/mL, a Tmax ([1]; Heart) of 15 min and an AUC(0-inf) ([1]; Liver) of 293000 ng·h/mL. The AUC(0-t) ([1]; Liver) was 293000 ng·h/mL, the Cmax ([1]; Liver) was 114000 ng/mL and the Tmax ([1]; Liver) was 15 min. The AUC(0-inf) ([1]; Non-draining Lymph Node) was 38800 ng·h/mL, the AUC(0-t) ([1]; Non-draining Lymph Node) was 38800 ng·h/mL and the Cmax ([1]; Non-draining Lymph Node) was 16100 ng/mL. It also gave a Tmax ([1]; Non-draining Lymph Node) of 15 min, an AUC(0-inf) ([1]; Small Intestine) of 332000 ng·h/mL and an AUC(0-t) ([1]; Small Intestine) of 331000 ng·h/mL. The Cmax ([1]; Small Intestine) was 204000 ng/mL, the Tmax ([1]; Small Intestine) was 15 min and the AUC(0-inf) ([1]; Spinal Cord) was 2450 ng·h/mL. It also gave an AUC(0-t) ([1]; Spinal Cord) of 2420 ng·h/mL, a Cmax ([1]; Spinal Cord) of 1010 ng/mL and a Tmax ([1]; Spinal Cord) of 15 min. For the same molecule, the AUC(0-inf) ([1]; Spleen) was 35200 ng·h/mL, the AUC(0-t) ([1]; Spleen) was 35200 ng·h/mL and the Cmax ([1]; Spleen) was 14200 ng/mL. It also gave a Tmax ([1]; Spleen) of 15 min, an AUC(0-inf) ([1]; Thymus) of 25800 ng·h/mL and an AUC(0-t) ([1]; Thymus) of 25800 ng·h/mL. The Cmax ([1]; Thymus) was 9630 ng/mL, the Tmax ([1]; Thymus) was 5 min and the brain concentration [2] was ~200 ng/mL. For the same molecule, the half-life (in vivo) was 94.4 to 130 min, the AUC(0-inf) (in vivo; iv, 10 mg/kg) was 5620 ng·h/mL and the CL renal (in vivo; iv, 10 mg/kg) was 0.661 mL/min/kg. It also gave a Cmax (in vivo; iv, 10 mg/kg) of 7040 ng/mL, a Tmax (in vivo; iv, 10 mg/kg) of 5 min and a Vd (in vivo; iv, 10 mg/kg) of 4.92 L/kg. It also gave a half-life (in vivo; iv, 10 mg/kg) of 98.6 min, an AUC(0-inf) (in vivo; po, 2 mg/kg) of 423 ng·h/mL and a CL renal (in vivo; po, 2 mg/kg) of 1.97 mL/min/kg. For the same molecule, the Cmax (in vivo; po, 2 mg/kg) was 160 ng/mL, the Tmax (in vivo; po, 2 mg/kg) was 60 min and the bioavailability (in vivo; po, 2 mg/kg) was 45.7%. It also gave a half-life (in vivo; po, 2 mg/kg) of 104 min, an AUC(0-inf) (in vivo; po, 7.5 mg/kg) of 2400 ng·h/mL and a CL renal (in vivo; po, 7.5 mg/kg) of 1.88 mL/min/kg. It also gave a Cmax (in vivo; po, 7.5 mg/kg) of 1460 ng/mL, a Tmax (in vivo; po, 7.5 mg/kg) of 15 min and a bioavailability (in vivo; po, 7.5 mg/kg) of 58.8%. The half-life (in vivo; po, 7.5 mg/kg) was 130 min, the AUC(0-inf) (in vivo; po, 20 mg/kg) was 9630 ng·h/mL and the CL renal (in vivo; po, 20 mg/kg) was 1.53 mL/min/kg. It also gave a Cmax (in vivo; po, 20 mg/kg) of 4960 ng/mL, a Tmax (in vivo; po, 20 mg/kg) of 15 min and a bioavailability (in vivo; po, 20 mg/kg) of 85.5%. It also gave a half-life (in vivo; po, 20 mg/kg) of 94.4 min, an AUC(0-inf) (in vivo; po, 75 mg/kg) of 41600 ng·h/mL and a CL renal (in vivo; po, 75 mg/kg) of 1.14 mL/min/kg. The Cmax (in vivo; po, 75 mg/kg) was 12000 ng/mL, the Tmax (in vivo; po, 75 mg/kg) was 15 min and the bioavailability (in vivo; po, 75 mg/kg) was 95.2%. It also gave a half-life (in vivo; po, 75 mg/kg) of 116 min.
